According to the supplement of paper PMC10307832:

Assays:
Test in all cases: relative viability (nuclei count vs DMSO), 5 days (fraction); higher = more cells survive
[1] = compound: CN(C)C/C=C/C(=O)Nc1cc2c(Nc3ccc(F)c(Cl)c3)ncnc2cc1O[C@H]1CCOC1 [Afatinib] + O=C(CCCCCCC(=O)Nc1ccccc1)NO [Vorinostat] (partner 1 µM)
Summary of the method: (§1)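 A single step with final 0.05% Triton X-100, 1% formaldehyde and 1 ug/ml Hoechst fixed the cells and stained nuclei 5 days after treatment. Lung cancer cell lines in 1536-well plates had been treated by pin tool the day after seeding with one drug alone or a fixed anchor-drug dose plus five library-drug doses (not always all listed) in √10 steps, and nuclei were counted on 4× images. Relative viability is the ratio of nuclei in treated wells to nuclei in vehicle wells, taken as the median of duplicate plates.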

[2] = compound: CN(C)C/C=C/C(=O)Nc1cc2c(Nc3ccc(F)c(Cl)c3)ncnc2cc1O[C@H]1CCOC1 [Afatinib] + Cc1nc(Nc2ncc(C(=O)Nc3c(C)cccc3Cl)s2)cc(N2CCN(CCO)CC2)n1 [Dasatinib] (partner 0.075 µM)
Summary of the method: as §1

[3] = compound: CN(C)C/C=C/C(=O)Nc1cc2c(Nc3ccc(F)c(Cl)c3)ncnc2cc1O[C@H]1CCOC1 [Afatinib] + CS(=O)(=O)N1CCN(Cc2cc3nc(-c4cccc5[nH]ncc45)nc(N4CCOCC4)c3s2)CC1 [Pictilisib] (partner 1 µM)
Summary of the method: as §1

[4] = compound: CN(C)C/C=C/C(=O)Nc1cc2c(Nc3ccc(F)c(Cl)c3)ncnc2cc1O[C@H]1CCOC1 [Afatinib] + C[C@@H](Oc1cc(-c2cnn(C3CCNCC3)c2)cnc1N)c1c(Cl)ccc(F)c1Cl [Crizotinib] (partner 1 µM)
Summary of the method: as §1

Cell Line | relative viability ([1]; first compound 0.005 µM) | relative viability ([1]; first compound 0.01581 µM) | relative viability ([1]; first compound 0.05 µM) | relative viability ([1]; first compound 0.1581 µM) | relative viability ([1]; first compound 0.5 µM) | relative viability ([2]; first compound 0.005 µM) | relative viability ([2]; first compound 0.01581 µM) | relative viability ([2]; first compound 0.05 µM) | relative viability ([2]; first compound 0.1581 µM) | relative viability ([2]; first compound 0.5 µM) | relative viability ([3]; first compound 0.005 µM) | relative viability ([3]; first compound 0.01581 µM) | relative viability ([3]; first compound 0.05 µM) | relative viability ([3]; first compound 0.1581 µM) | relative viability ([3]; first compound 0.5 µM) | relative viability ([4]; first compound 0.005 µM) | relative viability ([4]; first compound 0.01581 µM) | relative viability ([4]; first compound 0.05 µM) | relative viability ([4]; first compound 0.1581 µM) | relative viability ([4]; first compound 0.5 µM)
NCI-H1651 | 0.628 | 0.521 | 0.512 | 0.575 | 0.539 | 0.483 | 0.426 | 0.407 | 0.386 | 0.381 | 0.58 | 0.533 | 0.546 | 0.553 | 0.449 | 0.911 | 0.85 | 0.817 | 0.855 | 0.82
NCI-H1666 | 1 | 1.03 | 1.03 | 0.811 | 0.712 | 0.784 | 0.772 | 0.672 | 0.672 | 0.776 | 0.329 | 0.252 | 0.344 | – | 0.345 | 0.879 | 0.885 | 0.661 | – | 0.676
NCI-H1734 | 0.795 | 0.826 | 0.874 | 0.779 | 0.831 | 0.482 | 0.386 | 0.497 | 0.491 | 0.444 | 0.479 | 0.467 | 0.486 | 0.438 | 0.416 | 0.82 | 0.687 | 0.652 | 0.568 | 0.642
NCI-H1755 | 0.9 | 0.935 | 0.789 | 0.79 | 0.727 | 0.483 | 0.424 | 0.435 | 0.393 | 0.399 | 0.433 | 0.435 | 0.41 | 0.368 | 0.358 | 0.894 | 0.869 | 0.848 | 0.852 | 0.868
NCI-H1915 | 0.525 | 0.518 | 0.497 | 0.476 | 0.464 | 0.361 | 0.347 | 0.313 | 0.301 | 0.304 | 1.05 | 0.993 | 0.951 | 0.912 | 0.855 | 1 | 0.963 | 0.872 | 0.957 | 0.894
NCI-H1944 | 0.514 | 0.562 | 0.42 | 0.413 | 0.406 | 0.211 | 0.205 | 0.21 | 0.185 | 0.186 | 0.387 | 0.307 | 0.335 | 0.319 | 0.335 | 1.08 | 0.989 | 0.883 | 0.596 | 0.709
NCI-H1975 | 0.711 | 0.667 | 0.59 | 0.357 | 0.26 | 0.455 | 0.386 | 0.306 | 0.15 | 0.11 | 0.293 | 0.185 | 0.164 | 0.17 | 0.0947 | 1.14 | 1.07 | 1.01 | 0.45 | 0.307
NCI-H1993 | 0.662 | 0.437 | 0.731 | 0.466 | 0.541 | 0.459 | 0.561 | 0.585 | 0.729 | 0.576 | 0.93 | 0.937 | 0.983 | 1.03 | 0.868 | 0.647 | 0.732 | 0.656 | 0.76 | 0.771
